Earlier results, collected in patent publication US20060281715A1, “Phosphates of secondary alcohols” (priority 2003, published 2006).

Tests used:
noradrenaline uptake = settings: enantiomers of venlafaxine
seratonin uptake = settings: enantiomers of venlafaxine
[1] = oral administration
[2] = major metabolite

## COc1ccc(C(CN(C)C)C2(O)CCCCC2)cc1 (single isomer, unassigned) [R-enantiomer]
Noradrenaline uptake
  potency as inhibitor of noradrenaline uptake, compared with other enantiomer: more potent

## COc1ccc(C(CN(C)C)C2(O)CCCCC2)cc1 (single isomer, unassigned) [S-enantiomer]
Seratonin uptake
  potency as inhibitor of seratonin uptake, compared with other enantiomer: more potent

## CC[C@H](C)C(=O)O[C@H]1C[C@H](O)C=C2C=C[C@H](C)[C@H](CC[C@@H](O)C[C@@H](O)CC(=O)O)[C@H]21 [Pravastatin]
[1]
  time to peak plasma levels: about an hour and a half

## CN(C)CC(c1ccc(O)cc1)C1(O)CCCCC1 (stereo not drawn) [O-desmethylvenlafaxine]
[2]
  potency compared with venlafaxine: equally potent
calculated
  half-life: 11 h

## COc1ccc(C(CN(C)C)C2(O)CCCCC2)cc1 (stereo not drawn) [Venlafaxine]
Following single 25 to 150 mg doses
  time to mean peak plasma concentrations: approximately 2.4 hours
